In patent US8623911B2, “Boron-containing small molecules as anti-protozoal agent” (Anacor Pharmaceuticals, Inc., priority 2010, dated 2014):
Read-outs that look alike come from different tables or passages of the source.

Tests used:
[1] = Pharmacokinetic studies in mice (plasma and brain, IV and oral gavage); type: in vivo, male CD-1 mice; conditions: for AUC(0-t) / clearance / AUC(0-inf) / Vd / CL/F / half-life: male, CD-1, mouse; for AUC(0-t): read-out: Exposure/trapezoid AUC0-last; for clearance: read-out: Clearance Cl (converted); for AUC(0-inf): read-out: Exposure/trapezoid AUC0-inf; for Vd: read-out: Vdss; for CL/F: read-out: Oral Clearance Cl/F (converted); for half-life: read-out: t½ (converted); for Cmax: mouse, male CD-1 mice
Protocol: Male CD-1 mice weighing approximately 20 to 30 g received the test article M1 by either intravenous (IV) or oral gavage (OG) routes. Animals in the IV group (11 animals, 1 per time point) received a single bolus injection at a nominal dose level of 2 mg/kg of the test article. Animals receiving oral doses were administered the test article as a single OG dose (10 animals per dose level, 1 per time point) at nominal dose levels of 25 and 50 mg/kg. IV doses were administered as a solution in 5% (w/v) dextrose in sterile water for injection. OG doses at 25 and 50 mg/kg were administered as suspensions in 5% (w/v) dextrose in sterile water for injection and as in situ sodium salts in 5% (m/v) dextrose: 2% (v/v) ethanol in DWI, respectively. All dose solutions were delivered at 4 mL/kg. Animals receiving the IV dose at 2 mg/kg or the OG dose at 25 mg/kg were not fasted. Animals receiving the OG dose at 50 mg/kg were fasted for 4 hours before dosing and for 1 hour after dosing. Blood and brain tissue were collected from 1 animal/timepoint/group at 0.17, 0.5, 1, 2, 3, 4, 6, 8, 12, 18 and 24 hr after IV dosing, and at 0.5, 1, 2, 3, 4, 6, 8, 12, 18 and 24 hr after OG dosing. Whole blood samples were processed completely to plasma following collection. Plasma and brain tissue were submitted to bioanalysis to determine pharmacokinetic parameters and test article CNS disposition. Plasma and brain tissue from non-dosed animals were collected to serve as surrogate pre-dose samples. Bioanalysis for test article in plasma and brain tissue was performed by HPLC with tandem mass spectrometry (LC-MSMS). Plasma samples were treated with 4 volumes of 0.5% formic acid in methanol to precipitate plasma proteins. Treated samples were centrifuged and supernatants removed for analysis. Brain tissues were massed and homogenized mechanically in the presence of 1 volume of phosphate-buffered saline (PBS). The resulting tissue homogenates were then diluted with a further volume of PBS, and then treated in the same manner as plasma. Extracted samples were assayed for test article by means of LC-MSMS employing reversed-phase chromatography coupled to a triple quadrupole mass spectrometer employing electrospray ionization in the positive ion mode. The analytical column was a Phenomenex Luna 3μ C8 50×2 mm, with an online sample purification step performed on a Phenomenex Synergi 4μ Polar RP 50×2 mm column. Test articles were eluted using a binary mobile phase gradient comprising 5 mM Ammonium Acetate: 0.1% formic acid in either MeOH or H2O. Non-compartmental analysis of plasma test article concentration versus time was performed in Microsoft Excel to generate pharmacokinetic parameters including: area under the curve (AUC), clearance (as Cl or Cl/F), volume of distribution (Vdss), half-life (t½), and bioavailability (F).

P-gp (human MDR1) = assay: in vitro; type: in vitro ADME, canine; conditions: dog, MDCK-MDR1; 3 μM test compound; without GF120918; read-out: MDCK-MCR1 Papp
Protocol: (§1) MDCK-MDR1 cells (Madin-Darby canine kidney cells transfected with the human MDR1 gene) (Dr. Piet Borst, NKI-AVL, Amsterdam, The Netherlands) were seeded at 300,000 cells per well onto microporous, polycarbonate membranes in 12 well Costar Transwell® plates (Corning, Corning, N.Y.). The medium was removed and replaced with fresh cell culture medium approximately 24 hours after plating. Cells attained confluency and were ready for use in the transport assay after 72 hours of incubation.
(§2) A stock solution of each compound was prepared in DMSO at a concentration of 10 mg/mL. Stock solutions were further diluted in DMSO to a concentration of 1 mM for use in the assay. The final assay concentration of test compound in each incubation mixture was 3 μM and the final concentration of DMSO was 0.3%.
(§3) Cell cultures were pre-incubated with Transport Medium (TM), consisting of Hanks Balanced Salt Solution (HBSS), 25 mM glucose, and 25 mM HEPES, with and without the known P-gp inhibitor GF120918 (2 μM final assay concentration), for 30-60 minutes prior to the addition of test and control compounds. Following the pre-incubation period, transepithelial electrical resistance (TEER) measurements were taken on each insert to insure the integrity of the monolayer. The range for TEER values was 45-85Ω·cm^2. Transport medium was removed. Fresh transport media (1.5 mL) with or without GF120918 was added to the basolateral chambers. Solutions of the test compound were diluted into TM and added to the appropriate wells in triplicate (400 μL/well) at a final concentration of 3 μM with and without GF120918. The final concentration of DMSO was 0.3%. Control compounds were tested in triplicate at a final concentration of 3 μM. Cell monolayers were incubated with shaking (160 rpm) at 37° C. with 5% CO2 in a humidified incubator for one hour. Following the incubation, all plates were removed from the incubator. Inserts were removed from the plates and TEER measurements were again taken on each insert prior to removing samples for analysis to ensure no degradation of the tight junctions during the assay. An aliquot was taken from each receiver and diluted 1:3 with organic solvent (methanol) to assess transport of each compound across the monolayer. An aliquot was taken from each donor and diluted 1:2 with organic solvent (methanol) and then again 1:50 with matrix (50% methanol/50% TM) to assess mass balance within the study. All samples were assayed for test compound concentrations by LC-MS/MS using electrospray ionization.

MDCK-MDR1 cells = assay: in vitro; type: in vitro ADME, canine; conditions: 3 μM test compound
Protocol: as §1, §2, §3

[2] = oral delivery to mice, 25 and 50 mg/kg

O=C(Nc1ccc2c(c1)B(O)OCC2)c1ccc(F)cc1C(F)(F)F [M1, 4-Fluoro-N-(1-hydroxy-3,4-dihydro-1H-benzo[c][1,2]oxaborinin-7-yl)-2-trifluoromethyl-benzamide]
period brain concentrations are maintained above the MIC ([1]; OG dosing at 25 mg/kg): approximately 5 hours | period brain concentrations are maintained above the MIC ([1]; OG dosing at 50 mg/kg): ~10 h | AUC(0-t) ([1]; brain, IV 2 mg/kg, last = 12 hours): 700 ng·h/mL | clearance ([1]; brain, IV 2 mg/kg): 42.3 mL/min/kg | AUC(0-inf) ([1]; brain, IV 2 mg/kg): 890 ng·h/mL | Vd ([1]; brain, IV 2 mg/kg): 17.1 L/kg | AUC(0-t) ([1]; brain, oral 25 mg/kg, last = 12 hours): 14300 ng·h/mL | AUC(0-inf) ([1]; brain, oral 25 mg/kg): 14400 ng·h/mL | CL/F ([1]; brain, oral 25 mg/kg): 29.2 mL/min/kg | AUC(0-t) ([1]; brain, oral 50 mg/kg, last = 12 hours): 22900 ng·h/mL | AUC(0-inf) ([1]; brain, oral 50 mg/kg): 24700 ng·h/mL | CL/F ([1]; brain, oral 50 mg/kg): 36.5 mL/min/kg | AUC(0-t) ([1]; plasma, IV 2 mg/kg, last = 24 hours): 1580 ng·h/mL | clearance ([1]; plasma, IV 2 mg/kg): 27.8 mL/min/kg | AUC(0-inf) ([1]; plasma, IV 2 mg/kg): 1610 ng·h/mL | Vd ([1]; plasma, IV 2 mg/kg): 5 L/kg | half-life ([1]; plasma, IV 2 mg/kg): 6.88 h | AUC(0-t) ([1]; plasma, oral 25 mg/kg, last = 24 hours): 6390 ng·h/mL | AUC(0-inf) ([1]; plasma, oral 25 mg/kg): 6460 ng·h/mL | CL/F ([1]; plasma, oral 25 mg/kg): 64.5 mL/min/kg | half-life ([1]; plasma, oral 25 mg/kg): 5.29 h | AUC(0-t) ([1]; plasma, oral 50 mg/kg, last = 24 hours): 81400 ng·h/mL | AUC(0-inf) ([1]; plasma, oral 50 mg/kg): 83400 ng·h/mL | CL/F ([1]; plasma, oral 50 mg/kg): 10.2 mL/min/kg | Cmax ([1]; brain, oral 25 mg/kg): 5840 ng/mL | Cmax ([1]; brain, oral 50 mg/kg): 4210 ng/mL | Cmax ([1]; plasma, oral 25 mg/kg): 2230 ng/mL | Cmax ([1]; plasma, oral 50 mg/kg): 13400 ng/mL | dose proportionality of brain exposure [1, 2]: approximately proportional | dose proportionality of plasma exposure [1, 2]: superproportional increase | period for which brain:plasma ratio is greater than unity ([1]; oral dose of 25 mg/kg): approximately 4 hours | brain:plasma ratio ([1]; oral dose of 25 mg/kg, for approximately 4 hours following dosing): greater than unity | F (% of IV) ([1]; plasma, oral 25 mg/kg): 43.2 % of IV | Papp at 1 h, 3 µM (P-gp (human MDR1)): 55.7 ×10⁻⁶ cm/s | MDCK-MCR1 AQ (MDCK-MDR1 cells): −0.02
